Columns and labels:
[1] = target: sweet taste receptors T1r2 and T1r3 (Mus musculus, UniProt Q925D8+Q925I4); details: KT-1C cells; final concentration 5 mM; 0.5 minutes after addition
Protocol: KT-1C cells which had been washed twice in PBS(−) were incubated for 30 minutes at room temperature with 1 ml of imaging buffer (NaHCO3 22 mM, KCl 5 mM, NaH2PO4 1.25 mM, glucose 10 mM, NaCl 124 mM) to which 5 μl of Fura-2-AM (1 mM dissolved in DMSO, Molecular Probe) and 5 μl of Cremophor (Nacalai Tesque) had been added, incorporating Fura-2-AM into the cells. They were then washed twice with imaging buffer to remove any Fura-2-AM that had not been incorporated into the cells.
Next the dish was filled with 1 ml of imaging buffer to which 1 mM MgCl2 and 2 mM CaCl2 had been added, and the artificial sweetener Acesul fame K (Fluka), which is known to be a ligand for sweet taste receptors T1r2 and T1r3, was added to a final concentration of 5 mM. […] After measurement, changes over time in florescence in the various cells were converted to changes in calcium concentration by the AquaCosmos software, and graphed.

[2] = target: salt sensing channel αENaC (Mus musculus, UniProt Q61180); details: KT-1C cells
Protocol: Next they were washed twice with Na imaging buffer to remove any CoroNa-Red that had not been incorporated into the cells.
Next, the dish was filled with 1 mL of imaging buffer to which 1 mM MgCl2 and 2 mM CaCl2 had been added, and NaCl, which is known to be a salt taste channel ligand, was then added thereto to a final concentration of 50 mM. It is known that when cells with salt taste response ability (in other words, cells in which the salt sensing channel αENaC is functionally expressed) respond to NaCl (salty substance), sodium flows into the cytoplasm, and the concentration of sodium in the cytoplasm rises. Therefore, the fluorescence (580 nm) produced by CoroNa-Red when sodium flowed into the cytoplasm due to addition of NaCl was measured over time using an inverted fluorescence microscope (Leica, DMRIB) equipped with a CCD camera (Hamamatsu Photonics) controlled by AquaCosmos software (Hamamatsu Photonics). After measurement, changes over time inflorescence in the various cells were converted to changes in sodium concentration using the AquaCosmos software, and graphed.

salt taste channel αENaC = test: Hormone regulation of αENaC expression in cell line KT-1B (RT-PCR); format: cell-based, mouse; details: cell line KT-1B treated for 6 days; aldosterone 1 μM, hydrocortisone 0.2 μM; compared with progesterone 0.1 μM
Protocol: While being cultured in the presence of hydrocortisone, cell line KT-1B constantly expresses the amiloride-sensitive sodium channel alpha subunit (αENaC), which might be involved in salt taste response.
Therefore, cell line KT-1B was treated for 6 days with the hormone progesterone (0.1 μM), aldosterone (1 μM) or hydrocortisone (0.2 μM), and expression of the salt sensing channel αENaC was investigated.
RNA was extracted with Trizol solution from the treated cell line KT-1B, and cDNA was synthesized on a scale of 40 μl using the resulting 2 μg of RNA and a Super Script First Strand cDNA synthesis kit. Using 1 μl of this cDNA as the template and primers specific to salt taste channel αENaC (0.2 μM each, Seq. Nos. 13 and 14), 2.5 units of Takara Taq were added and a PCR reaction consisting of denaturation at 95° C. for 5 minutes followed by 35 cycles of 1 minute at 95° C., 1 minute at 58° C. and 2 minutes at 72° C. was performed in a 25 μl system. 8 μl of the PCR reaction liquid was electrophoresed on a 1.5% agarose gel, stained with ethidium bromide and photographed.

Chain of salt sensing channel αENaC (Q61180 whole entry): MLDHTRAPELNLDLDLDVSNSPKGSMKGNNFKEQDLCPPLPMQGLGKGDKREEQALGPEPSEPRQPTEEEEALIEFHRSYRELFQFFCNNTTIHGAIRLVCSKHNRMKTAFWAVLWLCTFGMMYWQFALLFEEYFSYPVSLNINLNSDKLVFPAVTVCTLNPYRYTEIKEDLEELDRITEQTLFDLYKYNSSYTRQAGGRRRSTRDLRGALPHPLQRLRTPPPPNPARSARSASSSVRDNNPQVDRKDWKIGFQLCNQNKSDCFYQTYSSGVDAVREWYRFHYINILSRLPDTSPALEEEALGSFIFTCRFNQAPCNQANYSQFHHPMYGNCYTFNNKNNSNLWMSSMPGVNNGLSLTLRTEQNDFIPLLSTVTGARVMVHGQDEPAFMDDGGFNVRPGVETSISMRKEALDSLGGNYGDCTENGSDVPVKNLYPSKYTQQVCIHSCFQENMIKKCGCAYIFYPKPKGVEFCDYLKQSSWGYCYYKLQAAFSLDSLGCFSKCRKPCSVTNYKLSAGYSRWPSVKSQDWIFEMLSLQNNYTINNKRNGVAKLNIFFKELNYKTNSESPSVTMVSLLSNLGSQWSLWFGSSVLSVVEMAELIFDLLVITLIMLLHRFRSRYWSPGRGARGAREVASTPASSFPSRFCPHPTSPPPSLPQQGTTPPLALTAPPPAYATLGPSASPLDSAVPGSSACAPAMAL
Chain of sweet taste receptors T1r2 and T1r3 (Q925I4 20-843): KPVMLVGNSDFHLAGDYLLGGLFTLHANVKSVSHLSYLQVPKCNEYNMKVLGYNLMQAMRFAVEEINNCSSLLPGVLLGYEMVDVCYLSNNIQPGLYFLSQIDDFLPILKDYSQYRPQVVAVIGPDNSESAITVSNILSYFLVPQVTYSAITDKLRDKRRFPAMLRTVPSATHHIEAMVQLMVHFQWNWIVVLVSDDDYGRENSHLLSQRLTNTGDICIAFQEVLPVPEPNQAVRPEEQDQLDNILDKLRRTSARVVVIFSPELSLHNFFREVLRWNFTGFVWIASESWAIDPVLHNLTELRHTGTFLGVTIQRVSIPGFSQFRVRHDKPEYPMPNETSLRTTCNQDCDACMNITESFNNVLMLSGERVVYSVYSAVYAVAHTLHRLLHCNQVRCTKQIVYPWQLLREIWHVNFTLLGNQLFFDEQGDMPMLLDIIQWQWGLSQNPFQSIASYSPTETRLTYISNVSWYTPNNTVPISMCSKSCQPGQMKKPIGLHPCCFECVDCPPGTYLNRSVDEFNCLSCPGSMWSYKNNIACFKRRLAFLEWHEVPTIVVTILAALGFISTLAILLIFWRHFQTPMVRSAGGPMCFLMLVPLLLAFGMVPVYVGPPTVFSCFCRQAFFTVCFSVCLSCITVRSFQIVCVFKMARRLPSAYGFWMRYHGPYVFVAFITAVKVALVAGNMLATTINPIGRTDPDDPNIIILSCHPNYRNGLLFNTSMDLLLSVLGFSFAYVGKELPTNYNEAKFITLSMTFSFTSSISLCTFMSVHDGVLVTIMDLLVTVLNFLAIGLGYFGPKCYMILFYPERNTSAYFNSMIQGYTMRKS
Chain of sweet taste receptors T1r2 and T1r3 (Q925D8 21-858): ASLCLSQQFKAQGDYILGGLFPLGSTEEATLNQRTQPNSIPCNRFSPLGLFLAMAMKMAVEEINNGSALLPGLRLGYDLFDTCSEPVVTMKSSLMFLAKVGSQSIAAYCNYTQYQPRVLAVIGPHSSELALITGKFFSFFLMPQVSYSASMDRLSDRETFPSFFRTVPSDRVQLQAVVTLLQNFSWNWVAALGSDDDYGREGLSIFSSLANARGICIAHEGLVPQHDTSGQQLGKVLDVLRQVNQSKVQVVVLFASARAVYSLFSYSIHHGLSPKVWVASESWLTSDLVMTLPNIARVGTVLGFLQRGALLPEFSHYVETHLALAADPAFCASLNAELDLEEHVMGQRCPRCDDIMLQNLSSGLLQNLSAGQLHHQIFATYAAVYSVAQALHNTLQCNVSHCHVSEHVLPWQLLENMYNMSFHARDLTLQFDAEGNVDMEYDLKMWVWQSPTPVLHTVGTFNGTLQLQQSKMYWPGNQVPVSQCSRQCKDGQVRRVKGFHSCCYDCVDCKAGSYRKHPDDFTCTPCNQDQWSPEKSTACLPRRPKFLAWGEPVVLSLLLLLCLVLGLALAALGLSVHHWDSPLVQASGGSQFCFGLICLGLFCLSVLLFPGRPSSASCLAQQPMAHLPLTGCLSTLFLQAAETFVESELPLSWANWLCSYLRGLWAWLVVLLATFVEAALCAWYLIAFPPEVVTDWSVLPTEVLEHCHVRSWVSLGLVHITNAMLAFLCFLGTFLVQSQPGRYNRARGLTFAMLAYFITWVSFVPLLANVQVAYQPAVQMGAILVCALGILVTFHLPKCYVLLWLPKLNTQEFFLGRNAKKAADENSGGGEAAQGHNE

Structure (SMILES): CC1=CC(=O)[N-]S(=O)(=O)O1.[K+] [Acesulfame K]
- intercellular calcium concentration (Fura-2 fluorescence) after addition [1]: rise in intercellular calcium concentration

Structure (SMILES): [Cl-].[Na+] [NaCl]
- dependence of intercellular sodium concentration on added concentration ([2]; 50 mM then 150 mM added): affected by the concentration of added NaCl
- intercellular sodium concentration (CoroNa-Red fluorescence) after addition ([2]; final concentration 50 mM, 0.5 minutes after addition): rise in intercellular sodium concentration

Structure (SMILES): C[C@]12CCC(=O)C=C1CC[C@@H]1[C@@H]2[C@@H](O)C[C@]2(C=O)[C@@H](C(=O)CO)CC[C@@H]12 [aldosterone]
- amount of expression of the salt taste channel αENaC (mRNA, RT-PCR) (salt taste channel αENaC): greater

Structure (SMILES): C[C@]12CCC(=O)C=C1CC[C@@H]1[C@@H]2[C@@H](O)C[C@@]2(C)[C@H]1CC[C@]2(O)C(=O)CO [hydrocortisone]
- amount of expression of the salt taste channel αENaC (mRNA, RT-PCR) (salt taste channel αENaC): greater

From patent US20060040255A1, “Cell line designated KT-1 established from tongue epithelial and use thereof” (National Food Research Institute, priority 2003, published 2006)
